In patent US6034108A, “Method for treating mental retardation” (Eli Lilly and Company, priority 1998, dated 2000):

Legend:
[1] = target: T1, m2 receptors in brain stem (Rattus norvegicus, UniProt P10980); experiment: 3H-guinuclidinyl benzilate binding to m2 receptors in brain stem
T1 sequence (P10980 1-466): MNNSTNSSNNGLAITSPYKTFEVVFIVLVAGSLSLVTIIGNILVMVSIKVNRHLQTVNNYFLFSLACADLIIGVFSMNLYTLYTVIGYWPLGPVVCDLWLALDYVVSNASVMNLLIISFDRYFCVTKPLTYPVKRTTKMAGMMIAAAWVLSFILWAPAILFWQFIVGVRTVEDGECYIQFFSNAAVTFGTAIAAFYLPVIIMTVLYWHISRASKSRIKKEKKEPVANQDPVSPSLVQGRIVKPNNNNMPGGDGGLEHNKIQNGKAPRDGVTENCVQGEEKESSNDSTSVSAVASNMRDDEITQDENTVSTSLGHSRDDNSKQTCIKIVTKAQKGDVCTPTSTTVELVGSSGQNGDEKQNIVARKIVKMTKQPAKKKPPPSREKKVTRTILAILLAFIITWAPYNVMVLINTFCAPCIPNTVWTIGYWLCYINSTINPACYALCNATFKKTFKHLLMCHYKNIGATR

m4 receptors = experiment: cAMP formation in CHO m4 cells treated with pertussis toxin; format: cell-based
Source text: Muscarinic agonists stimulate the formation of cAMP up to 10 fold in CHO m4 cells treated with pertussisi toxin and the pharmacology is consistent with the mediation by m4 receptors. Eckols K. Soc. Neurosci Abstr., 21:2040 (1995).

SMILES: CCCCCCOc1nsnc1C1=CCCN(C)C1 [Xanomeline, 3-(4-hexyloxy-1,2,5-thiadiazol-3-yl)-1,2,5,6-tetrahydro-1-methylpyridine]
- Ki [1]: 24 nM
- stimulation of the formation of cAMP (m4 receptors): efficaciously and potently stimulated the formation of cAMP
